Results as given in ChEMBL document CHEMBL3879907, “8-azabicyclo[3.2.1]octane compounds as mu opioid receptor antagonists” (2014).

Legend:
Mus musculus [1] = experiment: Reversal of morphine-induced delayed gastrointestinal transit in po dosed mouse compound administered prior to morphine challenge followed by non-nutritive, non-absorbable charcol meal administration by oral gavage at 5 mins post morphine challenge for 60 mins; assay type: functional; settings: read-out: ID50 (the source's name)
Mus musculus [2] = experiment: Reversal of morphine-induced delayed gastrointestinal transit in sc dosed mouse compound administered prior to morphine challenge followed by non-nutritive, non-absorbable charcol meal administration by oral gavage at 5 mins post morphine challenge for 60 mins; assay type: functional; settings: read-out: ID50 (the source's name)
[3] = biological target: Mu-type opioid receptor (Homo sapiens) (UniProt P35372); experiment: Intrinsic activity at human mu opioid receptor expressed in CHOK1 cell membranes at 0.00001 to 20 uM after 30 mins by GTP-Eu nucleotide exchange assay relative to DAMGO; assay type: functional; settings: CHO-K1
[4] = biological target: Kappa-type opioid receptor (Cavia porcellus, UniProt P41144); experiment: Displacement of [3H]-diprenorphine from guinea pig kappa opioid receptor expressed in CHOK1 cell membranes; settings: cho-k1
[5] = biological target: Delta-type opioid receptor (Homo sapiens, UniProt P41143); experiment: Displacement of [3H]-diprenorphine from human delta opioid receptor expressed in cell membranes
Chain of Delta-type opioid receptor (P41143 whole entry): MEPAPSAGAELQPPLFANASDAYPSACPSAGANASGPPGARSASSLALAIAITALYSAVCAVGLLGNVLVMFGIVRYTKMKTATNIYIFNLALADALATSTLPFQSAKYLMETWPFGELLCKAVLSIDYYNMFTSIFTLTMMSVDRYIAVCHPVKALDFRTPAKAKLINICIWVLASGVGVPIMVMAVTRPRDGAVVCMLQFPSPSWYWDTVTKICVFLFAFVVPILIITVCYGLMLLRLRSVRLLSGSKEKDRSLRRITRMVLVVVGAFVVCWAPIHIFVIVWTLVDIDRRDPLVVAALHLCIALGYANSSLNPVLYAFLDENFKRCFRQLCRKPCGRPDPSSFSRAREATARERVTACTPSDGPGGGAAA

Chain of Mu-type opioid receptor (Homo sapiens) (P35372 whole entry): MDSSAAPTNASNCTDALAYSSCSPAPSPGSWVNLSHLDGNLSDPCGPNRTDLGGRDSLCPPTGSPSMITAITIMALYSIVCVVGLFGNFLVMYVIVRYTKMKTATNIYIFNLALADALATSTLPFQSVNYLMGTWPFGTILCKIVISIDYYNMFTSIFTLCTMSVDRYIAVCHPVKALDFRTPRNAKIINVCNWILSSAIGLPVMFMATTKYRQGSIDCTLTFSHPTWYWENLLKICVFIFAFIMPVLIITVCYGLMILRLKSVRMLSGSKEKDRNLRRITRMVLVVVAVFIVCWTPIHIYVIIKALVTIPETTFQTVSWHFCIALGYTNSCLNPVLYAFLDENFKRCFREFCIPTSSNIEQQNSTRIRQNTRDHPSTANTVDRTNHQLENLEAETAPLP
Chain of Kappa-type opioid receptor (P41144 whole entry): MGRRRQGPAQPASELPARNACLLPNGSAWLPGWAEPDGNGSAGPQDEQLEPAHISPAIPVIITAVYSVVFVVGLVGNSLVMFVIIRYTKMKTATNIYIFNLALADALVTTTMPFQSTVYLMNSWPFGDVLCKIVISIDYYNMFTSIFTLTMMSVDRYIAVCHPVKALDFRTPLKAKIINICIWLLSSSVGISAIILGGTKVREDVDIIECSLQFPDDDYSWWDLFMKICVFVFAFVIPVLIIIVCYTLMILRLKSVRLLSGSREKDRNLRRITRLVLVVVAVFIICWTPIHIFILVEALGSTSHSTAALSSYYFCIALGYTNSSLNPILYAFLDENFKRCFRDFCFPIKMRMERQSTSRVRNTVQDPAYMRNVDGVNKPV

NC(=O)c1cccc([C@H]2C[C@H]3CC[C@@H](C2)N3CCN(CC2CCCCC2)C(=O)[C@@H](O)CO)c1 [AXELOPRAN]
ED50 (Mus musculus [1]): 0.1 to 3 mg/kg | ED50 (Mus musculus [2]): 0.1 to 3 mg/kg

NC(=O)c1cccc([C@H]2C[C@H]3CC[C@@H](C2)N3CCN(CC2CCCCC2)C(=O)[C@@H](O)CO)c1.O=S(=O)(O)O [AXELOPRAN SULFATE]
ED50 (Mus musculus [1]): 0.1 to 3 mg/kg | ED50 (Mus musculus [2]): 0.1 to 3 mg/kg

NC(=O)c1cccc([C@H]2C[C@H]3CC[C@@H](C2)N3CCN(CC2CCCCC2)C(=O)CO)c1
Intrinsic activity [3]: < 40% | ED50 (Mus musculus [1]): 0.1 to 3 mg/kg | ED50 (Mus musculus [2]): 0.1 to 3 mg/kg

NC(=O)c1cccc([C@H]2C[C@H]3CC[C@@H](C2)N3CCN(CC2CCCCC2)C(=O)C2(O)CC2)c1.O=C(O)C(F)(F)F
Intrinsic activity [3]: < 40% | pKi [4]: 7 to 10.5 | pKi [5]: 7 to 10.5

O=C(O)CCC(=O)N(CCN1[C@@H]2CC[C@H]1C[C@@H](c1cccc(O)c1)C2)Cc1c(F)cccc1F
Intrinsic activity [3]: < 40% | pKi [4]: 7 to 10.5 | pKi [5]: 7 to 10.5

O=C(O)CCC(=O)N(CCN1[C@@H]2CC[C@H]1C[C@@H](c1cccc(O)c1)C2)Cc1ccccc1
Intrinsic activity [3]: < 40% | pKi [4]: 7 to 10.5 | pKi [5]: 7 to 10.5

CN(C)CCCC(=O)N(CCN1[C@@H]2CC[C@H]1C[C@@H](c1cccc(C(N)=O)c1)C2)CC1CCCCC1
Intrinsic activity [3]: < 40% | pKi [4]: 7 to 10.5 | pKi [5]: 7 to 10.5

N#CCC(=O)N(CCN1[C@@H]2CC[C@H]1C[C@@H](c1cccc(C(N)=O)c1)C2)Cc1ccccc1.O=C(O)C(F)(F)F
Intrinsic activity [3]: < 40% | pKi [4]: 7 to 10.5 | pKi [5]: 7 to 10.5

CC(C)(CO)C(=O)N(CCN1[C@@H]2CC[C@H]1C[C@@H](c1cccc(C(N)=O)c1)C2)Cc1c(F)cccc1F.O=C(O)C(F)(F)F
Intrinsic activity [3]: < 40% | pKi [4]: 7 to 10.5 | pKi [5]: 7 to 10.5

NC(=O)c1cccc([C@H]2C[C@H]3CC[C@@H](C2)N3CCN(CCCC2CCCCC2)C(=O)CO)c1
Intrinsic activity [3]: < 40% | pKi [4]: 7 to 10.5 | pKi [5]: 7 to 10.5

CC(C)(CO)C(=O)N(CCN1[C@@H]2CC[C@H]1C[C@@H](c1cccc(C(N)=O)c1)C2)CC1CCCCC1
Intrinsic activity [3]: < 40% | pKi [4]: 7 to 10.5 | pKi [5]: 7 to 10.5

CS(=O)(=O)CC(=O)N(CCCN1[C@@H]2CC[C@H]1C[C@@H](c1cccc(C(N)=O)c1)C2)Cc1ccccc1.O=C(O)C(F)(F)F
Intrinsic activity [3]: < 40% | pKi [4]: 7 to 10.5 | pKi [5]: 7 to 10.5

CN(C)S(=O)(=O)N(CCN1[C@@H]2CC[C@H]1C[C@@H](c1cccc(C(N)=O)c1)C2)Cc1ccc(C(F)(F)F)cc1.O=C(O)C(F)(F)F
Intrinsic activity [3]: < 40% | pKi [4]: 7 to 10.5 | pKi [5]: 7 to 10.5

NC(=O)c1cccc([C@H]2C[C@H]3CC[C@@H](C2)N3CCN(Cc2ccc(C(F)(F)F)cc2)C(=O)CO)c1.O=C(O)C(F)(F)F
Intrinsic activity [3]: < 40% | pKi [4]: 7 to 10.5 | pKi [5]: 7 to 10.5

C[C@H](CN1[C@@H]2CC[C@H]1C[C@@H](c1cccc(O)c1)C2)N(Cc1ccccc1)C(=O)C1CCCC1
Intrinsic activity [3]: < 40% | pKi [4]: 7 to 10.5 | pKi [5]: 7 to 10.5

CC1(C)C(CN(CCN2[C@@H]3CC[C@H]2C[C@@H](c2cccc(C(N)=O)c2)C3)C(=O)CO)C1(C)C
Intrinsic activity [3]: < 40% | pKi [4]: 7 to 10.5 | pKi [5]: 7 to 10.5

O=C(O)CCC(=O)N(CCN1[C@@H]2CC[C@H]1C[C@@H](c1cccc(O)c1)C2)CC1CCCCC1 (single isomer, unassigned)
Intrinsic activity [3]: < 40% | pKi [4]: 7 to 10.5 | pKi [5]: 7 to 10.5

CC(C)CC(=O)N(CCN1[C@@H]2CC[C@H]1C[C@@H](c1cccc(O)c1)C2)Cc1cccc(F)c1
Intrinsic activity [3]: < 40% | pKi [4]: 7 to 10.5 | pKi [5]: 7 to 10.5

CC(C)C[C@H](O)C(=O)N(CCN1[C@@H]2CC[C@H]1C[C@@H](c1cccc(C(N)=O)c1)C2)CC1CCCCC1
Intrinsic activity [3]: < 40% | pKi [4]: 7 to 10.5 | pKi [5]: 7 to 10.5

O=C(Nc1ccc2c(c1)OCO2)N(CCN1[C@@H]2CC[C@H]1C[C@@H](c1cccc(O)c1)C2)CC1CCCCC1
Intrinsic activity [3]: < 40% | pKi [4]: 7 to 10.5 | pKi [5]: 7 to 10.5

O=C(O)CC1(CC(=O)N(CCN2[C@@H]3CC[C@H]2C[C@@H](c2cccc(O)c2)C3)CC2CCCCC2)CCCCC1
Intrinsic activity [3]: < 40% | pKi [4]: 7 to 10.5 | pKi [5]: 7 to 10.5

CC(CO)(CO)C(=O)N(CCN1[C@@H]2CC[C@H]1C[C@@H](c1cccc(C(N)=O)c1)C2)CC1CCCCC1
Intrinsic activity [3]: < 40% | pKi [4]: 7 to 10.5 | pKi [5]: 7 to 10.5

NC(=O)c1cccc([C@H]2C[C@H]3CC[C@@H](C2)N3CCN(CCc2ccc(O)cc2)C(=O)CO)c1.O=C(O)C(F)(F)F
Intrinsic activity [3]: < 40% | pKi [4]: 7 to 10.5 | pKi [5]: 7 to 10.5

CS(=O)(=O)CC(=O)N(CCN1[C@@H]2CC[C@H]1C[C@@H](c1cccc(C(N)=O)c1)C2)Cc1ccc(F)cc1.O=C(O)C(F)(F)F
Intrinsic activity [3]: < 40% | pKi [4]: 7 to 10.5 | pKi [5]: 7 to 10.5

CC(CO)(CO)C(=O)N(CCN1[C@@H]2CC[C@H]1C[C@@H](c1cccc(C(N)=O)c1)C2)CC1CCC(F)(F)CC1.O=C(O)C(F)(F)F
Intrinsic activity [3]: < 40% | pKi [4]: 7 to 10.5 | pKi [5]: 7 to 10.5

CC(C)(O)C(=O)N(CCN1[C@@H]2CC[C@H]1C[C@@H](c1cccc(C(N)=O)c1)C2)Cc1ccccc1.O=C(O)C(F)(F)F
Intrinsic activity [3]: < 40% | pKi [4]: 7 to 10.5 | pKi [5]: 7 to 10.5

NC(=O)c1cccc([C@H]2C[C@H]3CC[C@@H](C2)N3CCN(Cc2c(F)cccc2F)C(=O)[C@@H](O)Cc2ccccc2)c1.O=C(O)C(F)(F)F
Intrinsic activity [3]: < 40% | pKi [4]: 7 to 10.5 | pKi [5]: 7 to 10.5

CC(=O)OCC(=O)N(CCN1[C@@H]2CC[C@H]1C[C@@H](c1cccc(O)c1)C2)Cc1ccccc1.O=C(O)C(F)(F)F
Intrinsic activity [3]: < 40% | pKi [4]: 7 to 10.5 | pKi [5]: 7 to 10.5

COC(=O)CCC(=O)N(CCN1[C@@H]2CC[C@H]1C[C@@H](c1cccc(C(N)=O)c1)C2)CC1CCCCC1
Intrinsic activity [3]: < 40% | pKi [4]: 7 to 10.5 | pKi [5]: 7 to 10.5

C[C@H](CN1[C@@H]2CC[C@H]1C[C@@H](c1cccc(O)c1)C2)N(Cc1ccccc1)C(=O)CCC1CCCC1
Intrinsic activity [3]: < 40% | pKi [4]: 7 to 10.5 | pKi [5]: 7 to 10.5

O=C(O)CC1(CC(=O)N(CCN2[C@@H]3CC[C@H]2C[C@@H](c2cccc(O)c2)C3)CC2CCCCC2)CCCC1
Intrinsic activity [3]: < 40% | pKi [4]: 7 to 10.5 | pKi [5]: 7 to 10.5

O=C(NCc1ccc(F)cc1)N(CCN1[C@@H]2CC[C@H]1C[C@@H](c1cccc(O)c1)C2)CC1CCCCC1
Intrinsic activity [3]: < 40% | pKi [4]: 7 to 10.5 | pKi [5]: 7 to 10.5

CC(CO)(CO)C(=O)N(CCN1[C@@H]2CC[C@H]1C[C@@H](c1cccc(C(N)=O)c1)C2)CC1CCC1.O=C(O)C(F)(F)F
Intrinsic activity [3]: < 40% | pKi [4]: 7 to 10.5 | pKi [5]: 7 to 10.5

NC(=O)c1cccc([C@H]2C[C@H]3CC[C@@H](C2)N3CCCN(Cc2ccccc2)C(=O)CO)c1
Intrinsic activity [3]: < 40% | pKi [4]: 7 to 10.5 | pKi [5]: 7 to 10.5

O=C(NCc1ccccc1)N(CCN1[C@@H]2CC[C@H]1C[C@@H](c1cccc(O)c1)C2)CC1CCCCC1
Intrinsic activity [3]: < 40% | pKi [4]: 7 to 10.5 | pKi [5]: 7 to 10.5

O=C(Cc1ccccc1)N(CCN1[C@@H]2CC[C@H]1C[C@@H](c1cccc(O)c1)C2)CC1CCCCC1
Intrinsic activity [3]: < 40% | pKi [4]: 7 to 10.5 | pKi [5]: 7 to 10.5

CC(=O)N(CCN1[C@@H]2CC[C@H]1C[C@@H](c1cccc(O)c1)C2)Cc1ccccc1
Intrinsic activity [3]: < 40% | pKi [4]: 7 to 10.5 | pKi [5]: 7 to 10.5
